Results from article PMC11677535, “Eremophilane- and Acorane-Type Sesquiterpenes from the Deep-Sea Cold-Seep-Derived Fungus Furcasterigmium furcatum CS-280 Cultured in the Presence of Autoclaved Pseudomonas aeruginosa QDIO-4” (Marine Drugs, 2024).

Target: T1, COX-2 (cyclooxygenase-2) (Homo sapiens, UniProt P35354)
T1 construct: gene PTGS2
T1 sequence (P35354 18-604): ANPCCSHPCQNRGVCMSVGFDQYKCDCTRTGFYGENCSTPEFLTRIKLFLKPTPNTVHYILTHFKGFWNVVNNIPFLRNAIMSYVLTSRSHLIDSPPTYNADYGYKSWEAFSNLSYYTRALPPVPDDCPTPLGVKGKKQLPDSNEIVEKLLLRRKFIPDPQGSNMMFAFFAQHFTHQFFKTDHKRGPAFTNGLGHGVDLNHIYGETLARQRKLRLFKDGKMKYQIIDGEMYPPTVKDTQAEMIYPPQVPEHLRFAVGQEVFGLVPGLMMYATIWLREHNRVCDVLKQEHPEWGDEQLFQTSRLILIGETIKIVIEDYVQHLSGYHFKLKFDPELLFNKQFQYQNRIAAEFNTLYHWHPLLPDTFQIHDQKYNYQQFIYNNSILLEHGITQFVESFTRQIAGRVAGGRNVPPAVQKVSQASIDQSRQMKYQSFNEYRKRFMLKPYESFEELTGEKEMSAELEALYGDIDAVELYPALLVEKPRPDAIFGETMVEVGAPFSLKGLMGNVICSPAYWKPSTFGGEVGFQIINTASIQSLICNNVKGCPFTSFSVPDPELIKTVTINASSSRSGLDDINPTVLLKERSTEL
Assay: biochemical

Row | SMILES | IC50 [µM]
1 | CC(=O)O[C@H]1[C@@H](O)C=C2C[C@@]3(O)OC[C@@]4(C)O[C@]43C[C@]2(C)[C@H]1C [compound 2, fureremophilane B] | 123
2 | CC(=O)O[C@H]1C=C2C[C@@]3(O)OC[C@@]4(C)O[C@]43C[C@]2(C)[C@@H](C)[C@H]1O [compound 3, fureremophilane C] | 93.4
